The values below come from US8252958B2, “Use of guanabenz and its derivatives for making drugs for treating cystic fibrosis and diseases related to a protein addressing deficiency in the cells” (Centre National de la Recherche Scientifique (CNRS), priority 2006, dated 2012).

Assay [1] has as its target T1, delF508-CFTR (Homo sapiens, UniProt P13569, DEL508-508).
T1 construct: The CF15 cells are human epithelial cells of nasal origin which express the ΔF508-CFTR gene; endogenous in cells; host or cells: CF15 human airway epithelial cells (F508del/F508del)
Briefly: Competition experiments by the iodide efflux technique between guanabenz and the chaperone machinery of the ER. Format: cell-based. Here is the method: The measurements of chloride ion transport in the cells were performed with the aid of the radioactive iodide efflux technique (Becq et al., 1999; Dormer et al., 2001). The tracer (^125I) is incorporated into the intracellular medium. Next, the quantity of radiotracer which leaves the cell is counted after the addition of various pharmacological agents. The iodide is used as chloride ion transport tracer. ^125I further has the advantage of having a short life compared with that of other markers such as […] (respective ½ life: […] and 300 000 years).
The cells are cultured on 24-well plates in a suitable medium. Two rinses with efflux medium (NaCl: 136.6 mM, KCl: 5.4 mM, KH2PO4: 0.3 mM, NaH2PO4: 0.3 mM, NaHCO3: 4.2 mM, CaCl2: 1.3 mM, MgCl2: 0.5 mM, MgSO4: 0.4 Mm, HEPES: 10 mM, D-glucose: 5.6 mM) are performed in order to remove the dead cells which anarchically release radioactivity. Next, the cells are incubated with 500 μl of load (1 μCi/ml of ^125INa) for 30 min for the CHO-WT cells or 1 h for the CF15 and Calu-3 cells. The iodide forms an equilibrium on either side of the cell membrane. The robot (MultiPROBE, Packard) carries out the following steps: the load medium is rinsed with efflux medium in order to remove the extracellular radioactivity. The supernatant is collected every minute in hemolysis tubes and the medium is replaced with an equivalent volume (500 μl). No drug is added to the samples collected for the first 3 minutes, they make it possible to obtain a stable baseline, characterizing the passive outflow of the I ions. […] At the end of the experiment, the cells are lysed by adding 500 μl of NaOH (0.1N)/0.1% SDS (30 min), thus the radioactivity remaining inside the cell can be determined. The radioactivity present in the hemolysis tubes is counted in counts per minute (cpm) using a gamma counter (Cobra II, Packard). […] In order to quantify the outflow of iodide due to the administration of the test molecule, the following relative flow is calculated, which makes it possible to dispense with the basal flow: relative speed (min^−1)=Rpic−Rbasal. […]

For assay [2], the target named is T1, delF508-CFTR. Briefly: Iodide efflux (radiotracer) after 2 h treatment of CF15 cells, forskolin activation. Format: cell-based.

T1 sequence (P13569 with tags, fused parts or gaps DEL508-508): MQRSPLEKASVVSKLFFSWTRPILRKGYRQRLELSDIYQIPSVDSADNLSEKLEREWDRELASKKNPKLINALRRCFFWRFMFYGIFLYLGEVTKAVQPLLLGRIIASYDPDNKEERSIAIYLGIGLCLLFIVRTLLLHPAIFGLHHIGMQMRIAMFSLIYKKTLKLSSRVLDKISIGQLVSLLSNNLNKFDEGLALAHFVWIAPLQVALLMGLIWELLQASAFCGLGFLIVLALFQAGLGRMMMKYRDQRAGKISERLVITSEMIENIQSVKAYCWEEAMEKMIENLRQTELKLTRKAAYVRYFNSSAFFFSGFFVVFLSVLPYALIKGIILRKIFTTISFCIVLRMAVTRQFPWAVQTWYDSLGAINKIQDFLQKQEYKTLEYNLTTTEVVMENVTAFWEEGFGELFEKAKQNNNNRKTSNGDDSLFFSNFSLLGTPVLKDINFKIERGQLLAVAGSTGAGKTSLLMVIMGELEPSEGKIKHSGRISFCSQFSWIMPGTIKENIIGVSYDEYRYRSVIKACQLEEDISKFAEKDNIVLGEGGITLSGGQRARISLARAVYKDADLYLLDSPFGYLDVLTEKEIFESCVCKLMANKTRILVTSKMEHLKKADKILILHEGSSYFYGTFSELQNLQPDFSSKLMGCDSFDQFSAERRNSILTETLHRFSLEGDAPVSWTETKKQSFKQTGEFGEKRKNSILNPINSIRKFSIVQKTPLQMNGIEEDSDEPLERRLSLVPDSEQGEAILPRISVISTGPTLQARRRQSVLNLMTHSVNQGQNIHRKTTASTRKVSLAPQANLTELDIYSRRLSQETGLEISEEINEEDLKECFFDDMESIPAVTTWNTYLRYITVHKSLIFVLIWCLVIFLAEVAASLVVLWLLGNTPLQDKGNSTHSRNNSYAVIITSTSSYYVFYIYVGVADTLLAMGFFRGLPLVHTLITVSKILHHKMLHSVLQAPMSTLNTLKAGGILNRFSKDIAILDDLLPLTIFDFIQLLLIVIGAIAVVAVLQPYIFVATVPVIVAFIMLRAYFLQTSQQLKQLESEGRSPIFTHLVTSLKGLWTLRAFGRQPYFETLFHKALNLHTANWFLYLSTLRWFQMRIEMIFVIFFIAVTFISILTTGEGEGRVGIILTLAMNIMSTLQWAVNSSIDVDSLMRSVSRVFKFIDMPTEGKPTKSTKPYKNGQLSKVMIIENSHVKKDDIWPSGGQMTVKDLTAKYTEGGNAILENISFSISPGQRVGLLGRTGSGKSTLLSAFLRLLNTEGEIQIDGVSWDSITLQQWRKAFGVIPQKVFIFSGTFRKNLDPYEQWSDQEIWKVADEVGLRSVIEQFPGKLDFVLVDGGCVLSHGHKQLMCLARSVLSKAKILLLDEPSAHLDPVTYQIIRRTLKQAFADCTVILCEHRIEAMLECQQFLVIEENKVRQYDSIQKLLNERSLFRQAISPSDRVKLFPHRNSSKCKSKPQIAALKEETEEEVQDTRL

For the compound `N=C(N)N/N=C/c1c(Cl)cccc1Cl` [guanabenz], the “effect of guanabenz in the presence of Brefeldine-A (BFA)” value in assay [1] (BFA, inhibitor of vesicular ERGIC traffic) is reported as “inhibition of the effect of guanabenz”. Moreover, the “effect of guanabenz in the presence of MG132” value in assay [1] (MG132, proteasome inhibitor) is “No modulation of the effect of guanabenz”. The “effect of guanabenz in the presence of swainsonine” value in assay [1] (swainsonine, mannosidase inhibitor) is listed as “low potentiation of the effect of guanabenz”. Further, the “readdressing of the mutated protein F508del-CFTR to the membrane” value in assay [2] (CF15 cells (F508del/F508del) treated with guanabenz) is “allows readdressing of the mutated protein F508del-CFTR to the membrane”. Besides, the EC50 (as a rule, the concentration at which the effect is half-maximal) in assay [2] (CF15 cells, 2 h of treatment, iodide efflux, read-out: EC50 of readdressing of the protein F508del-CFTR) was 40 µM.
